Experimental data from patent US20070026465A1, “Method for detecting GAD65 autoreactive T cells newly diagnosed type1 diabetic patients and in the prediabetic period” (priority 2005, published 2007).

System: PBMC of newly diagnosed T1D patients
Experiment: GAD65 HLA class I tetramer staining and flow cytometry of stimulated PBMC, T1D patients
Assay type: cell-based, human

Sequence: VMNILLQYV [GAD65 peptide]
- % of CD3+/CD8+/GAD65 reactive T cells (specificity of the response): 6.39%
